This is an account of results in PubChem BioAssay AID1996.

The term solubility (kinetic) denotes solubility judged after dilution from a stock solution rather than from solid.

Molecules are shown by their SMILES. ≈ marks a conversion by molar mass, not a printed value.

The conditions of this data set: buffer; pH 7.4; 200.0 µM.
As for `Fc1ccccc1-c1nc(-c2ccc(Br)o2)no1`, the kinetic solubility was < 0.3 µg/mL.
For the compound `N[C@@H](Cc1ccc(O)cc1)C(=O)Nc1ccc2ccccc2c1`, the solubility (kinetic) was > 46 µg/mL.
Take `CC1CN(C(=O)c2ccc(NS(=O)(=O)c3ccc(F)cc3)cc2)CC(C)O1` (stereo not drawn): the kinetic solubility is > 58.9 µg/mL.
Regarding `Cc1cc(C)c2nc(Cl)c(C3NC(=O)c4ccccc4N3)cc2c1` (stereo not drawn), the kinetic solubility was < 0.2 µg/mL.
As for `COc1cccc(C(=O)N(C)Cc2c(C)nn(C3CCS(=O)(=O)C3)c2C)c1` (stereo not drawn), the solubility (kinetic) was > 58.7 µg/mL.
In the case of `CC(C)(C)NC(=O)c1cc2c(ccc3ccccc32)oc1=O`, the solubility (kinetic) was 2.5 µg/mL (≈ 8.46 µM).
For the compound `Cc1cccc(C(=O)OCC(=O)NCC2CCCO2)c1O` (stereo not drawn), the solubility (kinetic) is > 44 µg/mL.
`O=C(NC1CCSc2ccccc21)c1ccccc1F` (stereo not drawn) registered a kinetic solubility of 12.4 µg/mL (≈ 43.2 µM).
As for `COc1cc2nc(N3CCN(C(=O)c4ccco4)CC3)nc(N)c2cc1OC.Cl`, the kinetic solubility is 61.9 µg/mL.
As to `CN(C)c1ccc(C2CC(=O)C=C(Nc3ccccc3N)C2)cc1` (stereo not drawn), the solubility (kinetic) turned out to be 48.2 µg/mL (≈ 150 µM).
With `Cc1ccc(C(=O)/C=C/c2ccc3ncccc3c2)cc1`, the solubility (kinetic) amounted to 1 µg/mL (≈ 3.66 µM). Against the preceding compound, the solubility kinetic is about 48-fold lower.
For `CCOC(=O)CSc1nc(-c2ccccc2)nc2ccc(C)cc12`, the solubility (kinetic) was < 0.4 µg/mL.
On to `CCn1c(CNC(=O)c2cccnc2)cc2ccccc21`, for which the kinetic solubility is > 41.9 µg/mL.
For the compound `CCOC(=O)c1cc2c(=O)[nH]c(C(Cl)(Cl)Cl)nc2o1`, the kinetic solubility was > 48.8 µg/mL.
In the case of `CCOC(=O)c1sc(Nc2ccc(OCC)cc2)nc1C`, the solubility (kinetic) turned out to be 0.9 µg/mL (≈ 2.94 µM).
In the case of `CC(C)(C)c1ccc(C(=O)NCc2ccccc2)cc1`, the kinetic solubility is < 0.6 µg/mL.
Regarding `Cc1ccc(C(=O)NC(=O)OCCn2c(C)cnc2[N+](=O)[O-])cc1`, the solubility (kinetic) was found to be 48.2 µg/mL (≈ 145 µM).
In turn, `CCCc1nc2ccccc2c(=O)n1CC(=O)c1ccc(F)cc1` displayed a kinetic solubility of 2.2 µg/mL (≈ 6.78 µM).
Take `O=C(Nc1ccccc1N1CCOCC1)c1ccc(Cl)nc1`: the kinetic solubility is > 47.7 µg/mL.
With `Cn1c(=O)c2c(nc3n2CC(CO)O3)n(C)c1=O` (stereo not drawn), the kinetic solubility was > 37.8 µg/mL.
For the compound `Cc1cccc(C(=O)N2CCCC(c3nc(-c4ccc(C)o4)no3)C2)c1` (stereo not drawn), the kinetic solubility came out at 47.7 µg/mL (≈ 136 µM).
In turn, `CC(C)(C)NC(=S)N1CCC(C(=O)c2ccc(F)cc2)CC1` returned a solubility (kinetic) of 5.2 µg/mL (≈ 16.1 µM).
In the case of `CCNc1nc2cccnc2s1` it was 24.7 µg/mL (≈ 138 µM); in that of `COc1cccc(C(=O)Nc2ccccc2OC(F)(F)F)c1`, 30.6 µg/mL (≈ 98.3 µM); in that of `CCOC(=O)c1ccc(NC(=O)NCc2ccccn2)cc1`, 42.2 µg/mL (≈ 141 µM).
In the case of `Cc1ccc(C)c(NC(=O)Cc2nc(CNCC(C)C)cs2)c1`, the solubility (kinetic) came to 47.1 µg/mL (≈ 142 µM).
Take `Cc1ccc(S(=O)(=O)N2CCN(Cc3ccco3)CC2)cc1C`: the solubility (kinetic) is 13.1 µg/mL (≈ 39.2 µM).
Turning to `Cc1ccc(S(=O)(=O)N(CC2CO2)c2cccc([N+](=O)[O-])c2)cc1` (stereo not drawn), the kinetic solubility came to 43.9 µg/mL (≈ 126 µM).
Consider `CC(NC(=O)COC(=O)C1CC1C)c1cccc(Cl)c1` (stereo not drawn), for which the kinetic solubility was > 44.4 µg/mL.
`CCCCN(C/C=C/c1ccccc1OC)Cc1ccccc1` came in with a solubility (kinetic) of 3.5 µg/mL (≈ 11.3 µM).
Consider `COc1cc(OC)cc(C(=O)NCCOC23CC4CC(CC(C4)C2)C3)c1`, for which the kinetic solubility was determined as 31.3 µg/mL (≈ 87.1 µM).
The compound `Cn1c(=O)c2c(nc(Cl)n2CCOc2ccccc2)n(C)c1=O` returned a kinetic solubility of 6.7 µg/mL (≈ 20 µM).
In the case of `O=C(COc1ccc(Cl)cc1)Nc1ccc2oc(=O)ccc2c1`, the solubility (kinetic) is < 0.7 µg/mL.
`CC(C)(C)c1ccc(N2C(=O)CC(c3ccccc3)C2=O)cc1` (stereo not drawn): the solubility (kinetic) is < 0.7 µg/mL.
For the compound `Cc1cccc(NC(=O)C2CC2c2ccccc2)c1C` (stereo not drawn), the kinetic solubility turned out to be 3.8 µg/mL (≈ 14.3 µM).
In the case of `CSc1ccccc1C(=O)Nc1ccc2c(c1)OCO2` it was > 43.1 µg/mL; in that of `CC(C)c1ccc(NC(=O)/C(C#N)=C/c2ccncc2)cc1`, 4.6 µg/mL (≈ 15.8 µM); in that of `O=C(CCn1c(=S)[nH]c2ccccc2c1=O)N1CCCCC1`, 9.1 µg/mL (≈ 28.7 µM).
`COc1ccc(-c2cc(-c3cccnc3)c(C#N)c(N)n2)cc1` showed a kinetic solubility of 0.6 µg/mL (≈ 1.98 µM).
Compound `N#Cc1ccc(C(=O)NCCCSc2ccccc2)cc1` yielded a kinetic solubility of 6.4 µg/mL (≈ 21.6 µM).
`O=C1NC(=S)N(c2ccccc2)C(=O)/C1=C/c1ccco1` showed a kinetic solubility of 43 µg/mL (≈ 144 µM). This solubility kinetic lies about 6.7-fold higher than the previous one.
Compound `Cc1cc(C(c2cc(C)c(N)c(C)c2)c2ccco2)cc(C)c1N` had a kinetic solubility of 23.9 µg/mL (≈ 74.6 µM).
Compound `COc1ccc(CCCC(=O)NCCc2ccccc2)c(C)c1` came in with a solubility (kinetic) of 10.5 µg/mL (≈ 33.7 µM).
In turn, `N#C/C(=C(/O)c1cccc(F)c1)c1nc2ccccc2s1` displayed a kinetic solubility of 17.8 µg/mL (≈ 60.1 µM).
The compound `Fc1ccccc1-c1nc(NCc2ccccc2)c2ccccc2n1` had a solubility (kinetic) of 3.1 µg/mL (≈ 9.41 µM).
In the case of `CCCCC(=O)Nc1cc(C)c(NC(=O)c2ccco2)cn1`, the kinetic solubility was > 45.2 µg/mL.
Compound `Cc1cc(C)c(N=C2SCC(=O)N2Cc2ccco2)c(C)c1` came in with a solubility (kinetic) of 11.5 µg/mL (≈ 36.6 µM).
On to `O=C(Cc1ccccc1F)Nc1nc2ccccc2[nH]1`, for which the kinetic solubility was found to be 2.7 µg/mL (≈ 10 µM).
Compound `OC(COc1ccc(Br)cc1)Cn1ccnc1` (stereo not drawn) had a kinetic solubility of 36.3 µg/mL (≈ 122 µM).
Consider `C/C(=N\O)c1cc(Cl)ccc1O`, for which the solubility (kinetic) was > 27.8 µg/mL.
The same measure for `OCCN(CCO)c1nc(N2CCCCC2)c2nc(N(CCO)CCO)nc(N3CCCCC3)c2n1`: 10.7 µg/mL (≈ 21.2 µM); for `O=C(COC(=O)COc1ccccc1)Nc1ccc(Br)cc1Br`: 2.2 µg/mL (≈ 4.97 µM); for `COc1ccccc1N1CCN(C(=O)c2c(C)noc2C)CC1`: > 47.3 µg/mL.
Consider `O=C1N=C(N2CCCCC2)S/C1=C\c1ccccc1F`, for which the solubility (kinetic) was determined as 4.7 µg/mL (≈ 16.2 µM).
The same measure for `Cc1c(NC(=O)COC(=O)c2ccc(Cl)nc2)c(=O)n(-c2ccccc2)n1C`: > 60.1 µg/mL; for `CCC/C(O)=C1\C(=O)CC(C)(C)CC1=Nc1cccc([N+](=O)[O-])c1`: 42.6 µg/mL (≈ 129 µM); for `O=C(CNC(=O)c1ccccc1Cl)NCCc1cccs1`: > 48.4 µg/mL.
In the case of `O=C(COC(=O)c1ccc[n+]([O-])c1)Nc1ccccc1OC(F)F`, the solubility (kinetic) is > 50.7 µg/mL.
On to `Cc1cc(C)cc(NC(=O)c2sc3nc(C)cc(C)c3c2N)c1`, for which the solubility (kinetic) is 0.3 µg/mL (≈ 0.922 µM).
In the case of `COc1cccc(NC(=O)CN2C(=O)C(=O)N(C3CCCC3)C2=O)c1` it was > 51.8 µg/mL; in that of `Cc1cc(CNC(=O)COc2ccc([N+](=O)[O-])cc2)c2ccccc2n1`, 2.3 µg/mL (≈ 6.55 µM); in that of `COc1ccc(C(=O)NC23CC4CC(CC(C4)C2)C3)cc1`, 1 µg/mL (≈ 3.5 µM).
In the case of `COc1ccc(C(CC(=O)NCc2ccccc2)C(C)C)cc1` (stereo not drawn) it was 10.1 µg/mL (≈ 32.4 µM); in that of `COc1cccc(C(=O)NN2C(=S)N(c3ccccc3)C(=O)C2CC(N)=O)c1` (stereo not drawn), > 59.8 µg/mL.
`O=C(O)c1cccc(S(=O)(=O)Nc2ccc(Oc3ccccc3)cc2)c1`: the kinetic solubility is > 55.4 µg/mL.
For the compound `CC(=O)NC1c2ccccc2C(=O)N1Cc1ccccc1` (stereo not drawn), the kinetic solubility came out at 39.9 µg/mL (≈ 142 µM).
With `CN(C)CCNS(=O)(=O)c1ccc2c3c(cccc13)C(=O)N2`, the kinetic solubility was > 47.9 µg/mL.
`CN1CCC(N(C)C(=O)c2ccccc2F)CC1.Cl` showed a kinetic solubility of 42.9 µg/mL.
Turning to `CC(=O)c1ccc(NC(=O)c2ccccc2-c2ccccc2C(=O)O)cc1`, the kinetic solubility is > 53.9 µg/mL.
On to `CC(=O)Nc1ccc(NC(=O)[C@H](C)NC(=O)c2ccco2)cc1`, for which the kinetic solubility is > 47.3 µg/mL.
In turn, `Cl.OC(COCCC12CC3CC(CC(C3)C1)C2)CN1CCCC1` (stereo not drawn) had a solubility (kinetic) of 42.3 µg/mL.
On to `COc1ccc(OC)c(NC(=O)NC2CCCCCCC2)c1`, for which the kinetic solubility amounted to 2.2 µg/mL (≈ 7.18 µM).
In the case of `FC(F)Oc1ccccc1NC(=S)Nc1cccnc1`, the solubility (kinetic) is 43.8 µg/mL (≈ 148 µM).
